Results reported in patent publication US10442796B2, “2,3,5-substituted thiophene compound as protein kinase inhibitor” (KOREA INSTITUTE OF SCIENCE AND TECHNOLOGY, priority 2016, dated 2019).
Changes are numbered by the printed parent chain. Where a name gives a salt, the structure may show the parent alone.

Legend:
Assay in all cases: Growth inhibitory activity against Ba/F3 cell line
Type in all cases: cell-based
Parental Ba/F3 cells = details: BaF3; Parental Ba/F3 with mouse IL-3 1 ng/mL; 72 hours; cell titer glo
Experimental: (§1) A Ba/F3 cell line expressing an FLT3 mutation gene was cultured in a culture solution including 90% RPMI, 10% FBS, and an antibiotic (Welgene). 100 uL of the Ba/F3 cell line was put into each of 5,000 wells of a TC-treated 96 well plate (SPL), and then 1 uL of a test compound diluted in dimethylsulfoxide (diluted for each 3 paint from a concentration of 1 mM, total 10 concentrations) was each injected thereinto. Thereafter, the resulting cell lines were incubated in a cell culture incubator for 72 hours. 50 uL of a cell titer glo (Promega) solution was added thereto, the resulting mixture was stored at room temperature for 10 minutes, and then the light emission intensity was measured by using a reader (Envision, PerkinElmer). The light emission intensity was shown as a graph for each final concentration of the test compound, and the GI50 value was obtained by using a Prism 5.0 (GraphPad) software.
A parental Ba/F3 cell line having no FLT3 mutation gene was cultured by using a culture solution supplemented with mouse IL-3 (R&D Systems), such that a final concentration became 1 ng/mL in the culture solution including 90% RPMI, 10% FBS, and an antibiotic (Welgene). The activity was measured by a method which is the same as described above.

FLT3-ITD Ba/F3 cells = molecular target: T1, FLT3-ITD Ba/F3 cells (Homo sapiens, UniProt P36888, cells depend on it, form not given); details: Ba/F3 expressing FLT3-ITD; 72 hours; cell titer glo; read-out: IC50 (uM) FLT3-ITD
T1 sequence (P36888 1-993): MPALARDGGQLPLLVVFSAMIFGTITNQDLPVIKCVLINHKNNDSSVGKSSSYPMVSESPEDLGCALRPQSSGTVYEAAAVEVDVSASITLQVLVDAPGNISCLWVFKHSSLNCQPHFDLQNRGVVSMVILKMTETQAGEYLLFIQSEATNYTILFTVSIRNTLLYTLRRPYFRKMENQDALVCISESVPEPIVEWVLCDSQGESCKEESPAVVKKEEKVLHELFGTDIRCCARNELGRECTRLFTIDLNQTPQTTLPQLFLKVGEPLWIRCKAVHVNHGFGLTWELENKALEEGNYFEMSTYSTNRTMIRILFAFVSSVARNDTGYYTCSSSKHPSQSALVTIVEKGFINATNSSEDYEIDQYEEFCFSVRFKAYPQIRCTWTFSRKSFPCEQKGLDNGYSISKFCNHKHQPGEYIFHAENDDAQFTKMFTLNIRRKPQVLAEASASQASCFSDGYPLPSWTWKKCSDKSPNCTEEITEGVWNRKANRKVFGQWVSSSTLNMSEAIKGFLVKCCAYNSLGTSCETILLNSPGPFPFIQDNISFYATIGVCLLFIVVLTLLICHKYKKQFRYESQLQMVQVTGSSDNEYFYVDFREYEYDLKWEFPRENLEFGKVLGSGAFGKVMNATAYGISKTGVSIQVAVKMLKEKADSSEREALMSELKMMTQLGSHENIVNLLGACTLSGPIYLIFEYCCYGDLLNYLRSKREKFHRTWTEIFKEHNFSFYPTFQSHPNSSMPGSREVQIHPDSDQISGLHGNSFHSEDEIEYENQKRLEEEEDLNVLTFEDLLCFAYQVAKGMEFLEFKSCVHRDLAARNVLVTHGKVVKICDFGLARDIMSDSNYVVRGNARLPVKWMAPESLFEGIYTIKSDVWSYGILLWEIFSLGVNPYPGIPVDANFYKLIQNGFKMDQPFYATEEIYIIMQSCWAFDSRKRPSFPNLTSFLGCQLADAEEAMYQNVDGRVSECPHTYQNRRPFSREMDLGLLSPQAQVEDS
Experimental: as §1

[1] = molecular target: T2, FLT3-ITD-F691L-D835Y Ba/F3 cells (Homo sapiens, UniProt P36888, F691L/D835Y, cells depend on it, form not given); details: Ba/F3 expressing FLT3-ITD-F691L-D835Y; 72 hours; cell titer glo; read-out: IC50 (uM) FLT3-ITD-F691L-D835Y
T2 sequence (P36888 1-993 F691L/D835Y): T1 sequence (P36888 1-993) with F691L, D835Y
Experimental: as §1

| SMILES | GI50 (FLT3-ITD Ba/F3 cells) | GI50 [1] | IC50 (Parental Ba/F3 cells) |
| --- | --- | --- | --- |
| NC(=O)Nc1cc(CCc2cccc(F)c2)sc1C(=O)N[C@H]1CCCCNC1 [Example 54, (S)—N-(azepan-3-yl)-5-(3-fluorophenethyl)-3-ureidothiophene-2-carboxamide] | 1.93 µM | 1.02 µM | > 33 µM |
| CCn1cc(C#Cc2cc(NC(N)=O)c(C(=O)N[C@H]3CCCCNC3)s2)cn1 [Example 43, (S)—N-(azepan-3-yl)-5-((l-ethyl-1H-pyrazol-4-yl)ethynyl)-3-ureidothiophene-2-carboxamide trifluoroacetate] | 0.01 µM | 0.006 µM | 4.1 µM |
| CS(=O)(=O)N1CCC(n2cc(C#Cc3cc(NC(N)=O)c(C(=O)N[C@H]4CCCCNC4)s3)cn2)CC1 [Example 47, (S)—N-(azepan-3-yl)-5-((1-(1-(methylsulfonyl)piperidin-4-yl)-1H-pyrazol-4-yl)ethynyl)-3-ureidothiophene-2-carboxamide trifluoroacetate] | 0.027 µM | 0.04 µM | > 5 µM |
| NC(=O)Nc1cc(CCc2cccc(F)c2)sc1C(=O)N[C@H]1CCCNC1 [Example 53] | 0.359 µM | 0.149 µM | 44.5 µM |
| NC(=O)Nc1cc(C#Cc2ccsc2)sc1C(=O)N[C@H]1CCCCNC1 [Example 48, (S)—N-(azepan-3-yl)-5-(thiophen-3-ylethynyl)-3-ureidothiophene-2-carboxamide trifluoroacetate] | 0.005 µM | 0.004 µM | 1.59 µM |
| CS(=O)(=O)N1CCC(n2cc(C#Cc3cc(NC(N)=O)c(C(=O)N[C@H]4CCCNC4)s3)cn2)CC1 [Example 23, (S)-5-((1-(1-(methylsulfonyl)piperidin-4-yl)-1H-pyrazol-4-yl)ethynyl)-N-(piperidin-3-yl)-3-ureidothiophene-2-carboxamide] | 0.007 µM | 0.02 µM | > 5 µM |
| NC(=O)Nc1cc(C#Cc2ccccn2)sc1C(=O)N[C@H]1CCCNC1 [Example 10, (S)—N-(piperidin-3-yl)-5-(pyridin-2-ylethynyl)-3-ureidothiophene-2-carboxamide] | 0.005 µM | 0.004 µM | 4.62 µM |
| Cn1cc(CCc2cc(NC(N)=O)c(C(=O)N[C@H]3CCCCNC3)s2)cn1 [Example 52, (S)—N-(azepan-3-yl)-5-(2-(1-methyl-1H-pyrazol-4-yl)ethyl)-3-ureidothiophene-2-carboxamide trifluoroacetate] | 6.28 µM | > 4 µM | > 100 µM |
| NC(=O)Nc1cc(C#Cc2n[nH]c3ccccc23)sc1C(=O)N[C@H]1CCCNC1 [Example 12, (S)-5-((1H-indazol-3-yl)ethynyl)-N-(piperidin-3-yl)-3-ureidothiophene-2-carboxamide] | 0.037 µM | 0.027 µM | > 10 µM |
| NC(=O)Nc1cc(C#Cc2cn[nH]c2)sc1C(=O)N[C@H]1CCCCNC1 [Example 42, (S)-5-((1H-pyrazol-4-yl)ethynyl)-N-(azepan-3-yl)-3-ureidothiophene-2-carboxamide trifluoroacetate] | 0.137 µM | 0.116 µM | 54.4 µM |
| Cc1ccc(C#Cc2cc(NC(N)=O)c(C(=O)N[C@H]3CCCNC3)s2)cc1 [Example 24, (S)—N-(piperidin-3-yl)-5-(p-tolylethynyl)-3-ureidothiophene-2-carboxamide] | 0.005 µM | 0.002 µM | 1.29 µM |
| NC(=O)Nc1cc(C#Cc2cccc(F)c2)sc1C(=O)N[C@H]1CCCCNC1 [Example 50, (S)—N-(azepan-3-yl)-5-((3-fluorophenyl)ethynyl)-3-ureidothiophene-2-carboxamide] | 0.023 µM | 0.006 µM | 7.8 µM |

Now from value to compound, other results behind:

| GI50 (FLT3-ITD Ba/F3 cells) | GI50 [1] | SMILES | IC50 (Parental Ba/F3 cells) |
| --- | --- | --- | --- |
| 0.002 µM | 0.004 µM | NC(=O)Nc1cc(C#Cc2ccc(F)nc2)sc1C(=O)N[C@H]1CCCNC1 [Example 13, (S)-5-((6-fluoropyridin-3-yl)ethynyl)-N-(piperidin-3-yl)-3-ureidothiophene-2-carboxamide] | 2.22 µM |
| < 0.005 µM | < 0.004 µM | NC(=O)Nc1cc(C#Cc2ccc(C(F)(F)F)nc2)sc1C(=O)N[C@H]1CCCNC1 [Example 17, (S)—N-(piperidin-3-yl)-5-((6-(trifluoromethyl)pyridin-3-yl)ethynyl)-3-ureidothiophene-2-carboxamide] | 2.37 µM |
| < 0.005 µM | < 0.004 µM | NC(=O)Nc1cc(C#Cc2cccc([N+](=O)[O-])c2)sc1C(=O)N[C@H]1CCCNC1 [Example 5, (S)-5-((3-nitrophenyl)ethynyl)-N-(piperidin-3-yl)-3-ureidothiophene-2-carboxamide] | 2.06 µM |
| < 0.005 µM | < 0.004 µM | N#Cc1cccc(C#Cc2cc(NC(N)=O)c(C(=O)N[C@H]3CCCNC3)s2)c1 [Example 6, (S)-5-((3-cyanophenyl)ethynyl)-N-(piperidin-3-yl)-3-ureidothiophene-2-carboxamide] | 1.59 µM |
| 0.003 µM | < 0.001 µM | COC(=O)c1ccc(C#Cc2cc(NC(N)=O)c(C(=O)N[C@H]3CCCNC3)s2)cc1 [Example 18, methyl (S)-4-((5-(piperidin-3-ylcarbamoyl)-4-ureidothiophen-2-yl)ethynyl)benzoate trifluoroacetate] | 0.454 µM |
